Data taken from patent US12648986B2, “PLD for use in combination in the treatment of coronavirus” (PHARMA MAR, S.A., priority 2020, dated 2026).
Where two headings read alike, the source gives them in different places.

Legend:
[1] = test system: SARS-CoV-2; assay: Cytopathic effect on Vero E6 cells exposed to SARS-CoV-2 (CellTiter-Glo); format: cell-based; settings: for IC50: read-out: mean IC50 value and SD, SARS-CoV-2-induced cytopathic effect
[2] = test system: Vero E6 cells
[3] = test system: human stem cell-derived pneumocyte like cells; settings: 10 nm plitidepsin, 48 hour incubation
[4] = test system: SARS-CoV-2; assay: Vero E6 cells infected with SARS-CoV-2, direct quantitation of nucleocapsid (N) protein; format: cell-based; settings: Severe acute respiratory syndrome coronavirus 2, Vero C1008, two studies, read-out: IC50, SARS-CoV-2 growth in vitro
[5] = biological target: eEF1A (Oryctolagus cuniculus, UniProt Q71V39); assay: Binding of 14C-plitidepsin to purified eEF1A; settings: eEF1A purified from rabbit muscle
[6] = test system: SARS-CoV-2; assay: K18-hACE2 transgenic mice infected with SARS-CoV-2; format: in vivo
[7] = test system: SARS-CoV-2; assay: Mouse model of adenovirus-mediated hACE2 infected with SARS-CoV-2; format: in vivo
[8] = test system: SARS-CoV-2; assay: SARS-CoV-2 replication in human stem cell-derived pneumocyte like cells; format: cell-based; settings: 10 nM plitidepsin for 1 hour before infection, 48 hour incubation
Protocol: Several in vitro experiments aimed at determining the effect of plitidepsin on SARS-CoV-2 were carried out and are disclosed herein. […] In another study, human stem cell-derived pneumocyte like cells were prophylactically exposed to 10 nm plitidepsin for 1 hour and then infected with SARS-CoV-2 (4×10^4 plaque forming units). After a 48 hour incubation period, both antiviral and cytotoxic plitidepsin effects were determined.

[9] = test system: CD45+ cells; assay: Ex vivo cytokine expression in CD45+ cells from broncho-alveolar lavages of mice, LPS-B5 stimulation; settings: cells from plitidepsin treated mice
Text: An ex vivo study assessed the effect of plitidepsin on expression of the cytokines IL 6, IL 10, and TNFα in the lungs of mice.

[10] = Severe acute respiratory syndrome coronavirus 2, Vero C1008, 72 h

eEF1A, sequence (Q71V39 whole entry): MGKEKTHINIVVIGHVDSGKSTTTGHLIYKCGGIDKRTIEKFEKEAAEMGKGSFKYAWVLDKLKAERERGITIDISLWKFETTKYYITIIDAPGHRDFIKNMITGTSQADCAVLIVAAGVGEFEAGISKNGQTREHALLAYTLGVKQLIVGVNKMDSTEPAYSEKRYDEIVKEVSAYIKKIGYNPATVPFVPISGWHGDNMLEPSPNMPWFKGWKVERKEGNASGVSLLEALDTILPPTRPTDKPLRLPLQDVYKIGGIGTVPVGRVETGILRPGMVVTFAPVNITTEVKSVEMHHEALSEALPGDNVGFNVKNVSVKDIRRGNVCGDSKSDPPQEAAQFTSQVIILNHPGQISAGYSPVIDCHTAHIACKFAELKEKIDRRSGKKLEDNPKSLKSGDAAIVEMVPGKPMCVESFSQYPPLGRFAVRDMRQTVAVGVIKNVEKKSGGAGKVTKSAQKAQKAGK

## CCN(CCO)CCCC(C)Nc1ccnc2cc(Cl)ccc12 (stereo not shown) [Hydroxychloroquine, hydroxychloroquine]
[1]; [10]
  IC50: 9300 ± 11100 nM
[2]; Vero E6, absence of virus
  cytotoxic effects of the drug at concentrations inhibiting viral-induced cytopathic effect: no cytotoxic effects of the drug were observed

## CC[C@H](C)[C@H]1NC(=O)[C@@H](NC(=O)[C@@H](CC(C)C)N(C)C(=O)[C@@H]2CCCN2C(=O)C(C)=O)[C@@H](C)OC(=O)[C@H](Cc2ccc(OC)cc2)N(C)C(=O)[C@@H]2CCCN2C(=O)[C@H](CC(C)C)NC(=O)[C@@H](C)C(=O)[C@H](C(C)C)OC(=O)C[C@@H]1O [PLD, (−)-(3S,6R,7S,10R,11S,15S,17S,20S,25aS)-11-hydroxy-3-(4-methoxybenzyl)-2,6,17-trimethyl-15-(1-methylethyl)-7-[[(2R)-4-methyl-2-[methyl[[(2S)-1-(2-oxopropanoyl)pyrrolidin-2-yl]carbonyl]amino]pentanoyl]amino]-10-[(1S)-1-methylpropyl]-20-(2-methylpropyl)tetradecahydro-15H-pyrrolo[2,1-f]-[1,15,4,7,10,20]dioxatetrazacyclotricosine-1,4,8,13,16,18,21(17H)-heptaone]
[3]
  cytotoxicity against pneumocyte like cells: no observable cytotoxicity
[4]
  IC50: 0.7 to 3 nM
[5]
  affinity for eEF1A: high affinity
  rate of dissociation from eEF1A: low rate of dissociation
[6]
  antiviral effects in vivo: potent antiviral effects
[1]; [10]
  IC50: 51 ± 20 nM
[7]
  antiviral effects in vivo: potent antiviral effects
[2]; Vero E6, absence of virus
  cytotoxic effects of the drug at concentrations inhibiting viral-induced cytopathic effect: no cytotoxic effects of the drug were observed
[8]
  replication of SARS-CoV-2: completely eliminated replication of SARS-CoV-2
[9]
  IL 6, IL 10 and TNFα in CD45+ cells upon LPS-B5 stimulation vs nonstimulated controls: failed to show a marked increase

## MDL28170 [MDL 28170]
[1]; Vero E6, single drug, 3 days post infection, independent experiments with two replicates each
  IC50: 140 ± 60 nM
[2]; Vero E6, absence of virus
  cytotoxic effects of the drug at concentrations inhibiting viral-induced cytopathic effect: no cytotoxicity of the drug was observed

## nelfinavir mesylate hydrate
[1]; Vero E6, 100 μM to 0.0512 nM
  capacity to inhibit SARS-CoV-2-induced cytopathic effect: confirmed to have in vitro capacity to inhibit SARS-CoV-2-induced cytopathic effect
[2]
  cytotoxic effects of the drug at concentrations inhibiting viral-induced cytopathic effect: no cytotoxicity of the drug was observed
